Data: patent publication EP2236511A2, “LIGANDS OF ALPHA-ADRENOCEPTORS AND OF DOPAMINE, HISTAMINE, IMIDAZOLINE AND SEROTONIN RECEPTORS AND THE USE THEREOF” (priority 2007, dated 2009)
Structures can show the parent of a compound that is named as a salt. Where two headings read alike, the source gives them in different places.

Experiments:
human D1 receptor = molecular target: T1, human D1 receptor (Homo sapiens, UniProt P21728); assay: Radioligand binding to dopamine receptor D1 ([3H] SCH-23390, CHO membranes); settings: for inhibition at 10 µM: read-out: Dopamine receptors, % inhibition D1
T1 construct: expressed in transfected cells; host or cells: CHO
T1 sequence (P21728 whole entry): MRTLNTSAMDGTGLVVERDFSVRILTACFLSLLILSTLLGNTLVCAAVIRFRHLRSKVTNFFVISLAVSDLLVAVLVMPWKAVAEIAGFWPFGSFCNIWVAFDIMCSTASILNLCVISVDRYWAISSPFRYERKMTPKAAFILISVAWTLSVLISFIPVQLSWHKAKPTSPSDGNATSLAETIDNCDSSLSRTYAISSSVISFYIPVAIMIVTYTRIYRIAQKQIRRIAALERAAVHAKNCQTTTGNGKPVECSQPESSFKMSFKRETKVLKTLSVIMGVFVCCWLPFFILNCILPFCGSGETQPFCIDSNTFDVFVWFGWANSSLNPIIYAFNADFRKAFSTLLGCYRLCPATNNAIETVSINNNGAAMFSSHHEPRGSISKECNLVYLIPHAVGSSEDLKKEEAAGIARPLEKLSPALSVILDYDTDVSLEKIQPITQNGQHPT
Excerpt: For this purpose sDNA of human D1 receptor is expressed in CHO cells, as it was described in [Dearry A, Gingrich JA, Falardeau P, Fremeau RT Jr, Bates MD and Caron MG. Molecular cloning and expression of the gene for a human D1 dopamine receptor. Nature. […] Nature.

human D3 receptor = molecular target: T2, human D3 receptor (Homo sapiens, UniProt P35462); assay: Radioligand binding to dopamine receptor D3 ([3H] Spiperone, CHO membranes)
T2 construct: expressed in transfected cells; host or cells: CHO
T2 sequence (P35462 whole entry): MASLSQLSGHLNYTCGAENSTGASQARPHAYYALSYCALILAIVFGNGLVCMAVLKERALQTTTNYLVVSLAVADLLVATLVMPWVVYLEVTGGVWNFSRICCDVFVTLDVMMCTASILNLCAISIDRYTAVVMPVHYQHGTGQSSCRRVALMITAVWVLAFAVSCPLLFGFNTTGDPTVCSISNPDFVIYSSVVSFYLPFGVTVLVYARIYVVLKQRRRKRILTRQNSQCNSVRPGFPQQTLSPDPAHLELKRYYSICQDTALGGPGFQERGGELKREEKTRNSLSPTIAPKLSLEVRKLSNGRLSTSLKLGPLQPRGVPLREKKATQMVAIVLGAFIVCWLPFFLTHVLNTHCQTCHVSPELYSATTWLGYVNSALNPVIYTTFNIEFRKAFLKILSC
Excerpt: For this purpose sDNA of human D3 receptor is expressed in CHO cells, as it was described in [Sokoloff P, Giros B, Martres M-P, Bouthenet M-L and Schwartz J-C. Molecular cloning and characterization of novel dopamine receptor (D3) as target for neuroleptics. Nature. […] Molecular cloning and characterization of novel dopamine receptor (D3) as target for neuroleptics. Nature. […] Spiperone is used as positive control.

[1] = molecular target: T3, recombinant human 5-HT2C receptor (Homo sapiens, UniProt P28335); assay: Radioligand binding to serotonin receptor 5-HT2C ([3H] Mesulergine, CHO-K1 membranes); settings: for nH: 5-HT2C
T3 construct: expressed in transfected cells; host or cells: CHO-K1
T3 sequence (P28335 33-458): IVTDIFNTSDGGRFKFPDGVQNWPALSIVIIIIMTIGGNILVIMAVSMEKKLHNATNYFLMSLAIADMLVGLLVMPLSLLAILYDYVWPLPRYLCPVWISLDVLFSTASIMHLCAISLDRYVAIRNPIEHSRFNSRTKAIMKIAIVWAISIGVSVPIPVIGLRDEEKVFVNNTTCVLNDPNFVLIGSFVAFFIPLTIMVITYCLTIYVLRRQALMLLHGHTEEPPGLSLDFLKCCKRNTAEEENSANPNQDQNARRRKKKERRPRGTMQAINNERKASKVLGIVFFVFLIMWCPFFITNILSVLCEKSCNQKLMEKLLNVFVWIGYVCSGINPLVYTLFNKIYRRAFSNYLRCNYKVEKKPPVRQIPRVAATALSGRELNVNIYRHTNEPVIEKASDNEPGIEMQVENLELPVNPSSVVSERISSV
Excerpt: J Neurochem. 69: 1449 - 1458, 1997]. […] SB242084 is used as positive control.

human D4.2 receptor = molecular target: T4, human D4.2 receptor (Homo sapiens, UniProt P21917, DEL265-296); assay: Radioligand binding to dopamine receptor D4.2 ([3H] Spiperone, CHO-K1 membranes); settings: read-out: Dopamine receptors, % inhibition D4.2
T4 construct: expressed in transfected cells; host or cells: CHO-K1
T4 sequence (P21917 with tags, fused parts or gaps DEL265-296): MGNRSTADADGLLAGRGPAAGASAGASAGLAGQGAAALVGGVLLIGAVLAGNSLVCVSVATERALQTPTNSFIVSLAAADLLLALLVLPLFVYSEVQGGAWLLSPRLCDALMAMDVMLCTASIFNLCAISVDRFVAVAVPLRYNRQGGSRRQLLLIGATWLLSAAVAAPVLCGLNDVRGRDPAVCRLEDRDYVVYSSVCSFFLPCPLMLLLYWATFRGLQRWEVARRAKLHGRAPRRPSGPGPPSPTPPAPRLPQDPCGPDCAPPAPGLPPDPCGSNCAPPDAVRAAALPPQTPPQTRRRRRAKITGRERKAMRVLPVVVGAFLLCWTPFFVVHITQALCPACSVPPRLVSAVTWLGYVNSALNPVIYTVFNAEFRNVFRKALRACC
Experimental: Screening of the disclosed compounds for potential ability to interact with dopamine receptor D4.2 is carried out by method of radioligand binding. […] From the cells transfected in this way membrane species are prepared by homogenization of these cells in glass homogenizer with the subsequent separation of plasmatic membranes from cell nuclei, mitochondrias and cell wreckages by differential centrifugation. […] After incubation samples are filtered in vacuo on glass-microfiber filters G/F (Millipor, USA), filters are washed three times with cold solution of medium and radioactivity is measured by scintillation counter MicroBeta 340 (Perkin Elmer, USA). Nonspecific binding which makes up 10% of the overall binding is determined by incubation of membrane species with radioligand in the presence of 10 µM of Haloperidol.
Spiperone is used as positive control. Tested compounds' binding to the receptor is determined by their ability to displace radioligand and expressed in percent of displacement (%I). Values of %I are calculated according to the following equation: %I = (TA-CA)/(TA-NA)*100, [formula] wherein: TA - is overall radioactivity in the presence of radioligand only, CA - is radioactivity in the presence of radioligand and tested compound and NA - is radioactivity in the presence of radioligand and Haloperidol (10 µM).

human α2A receptor = molecular target: T5, human α2A receptor (Homo sapiens, UniProt P08913); assay: Radioligand binding to adrenergic receptor α2A ([3H] MK-912, Sf9 membranes); settings: for nH: Receptor α2A
T5 construct: expressed in transfected cells; host or cells: Sf9
T5 sequence (P08913 1-465): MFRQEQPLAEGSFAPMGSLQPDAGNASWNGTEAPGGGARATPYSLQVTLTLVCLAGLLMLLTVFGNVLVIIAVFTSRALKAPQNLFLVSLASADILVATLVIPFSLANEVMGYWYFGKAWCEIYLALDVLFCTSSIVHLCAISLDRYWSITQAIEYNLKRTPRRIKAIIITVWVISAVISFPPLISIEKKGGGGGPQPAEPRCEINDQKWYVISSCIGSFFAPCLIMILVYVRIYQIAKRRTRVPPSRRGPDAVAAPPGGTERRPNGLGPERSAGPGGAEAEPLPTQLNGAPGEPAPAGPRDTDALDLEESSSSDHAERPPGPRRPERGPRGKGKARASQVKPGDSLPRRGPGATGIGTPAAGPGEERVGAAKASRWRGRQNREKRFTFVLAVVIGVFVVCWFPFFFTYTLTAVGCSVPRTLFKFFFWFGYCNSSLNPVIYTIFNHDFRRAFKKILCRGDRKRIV
Excerpt: For this purpose sDNA of human α2A receptor is expressed in Sf9 cells, as described in [Uhlen S, Porter AC and Neubig RR. […] J Pharmacol ExpTher. […] J Pharmacol ExpTher. […] Yohimbine is used as positive control.

human H1 receptor = molecular target: T6, human H1 receptor (Homo sapiens, UniProt P35367); assay: Radioligand binding to histamine receptor H1 ([3H] Pyrilamine, CHO-K1 membranes); settings: for nH: histamine H1 receptors
T6 construct: expressed in transfected cells; host or cells: CHO-K1
T6 sequence (P35367 whole entry): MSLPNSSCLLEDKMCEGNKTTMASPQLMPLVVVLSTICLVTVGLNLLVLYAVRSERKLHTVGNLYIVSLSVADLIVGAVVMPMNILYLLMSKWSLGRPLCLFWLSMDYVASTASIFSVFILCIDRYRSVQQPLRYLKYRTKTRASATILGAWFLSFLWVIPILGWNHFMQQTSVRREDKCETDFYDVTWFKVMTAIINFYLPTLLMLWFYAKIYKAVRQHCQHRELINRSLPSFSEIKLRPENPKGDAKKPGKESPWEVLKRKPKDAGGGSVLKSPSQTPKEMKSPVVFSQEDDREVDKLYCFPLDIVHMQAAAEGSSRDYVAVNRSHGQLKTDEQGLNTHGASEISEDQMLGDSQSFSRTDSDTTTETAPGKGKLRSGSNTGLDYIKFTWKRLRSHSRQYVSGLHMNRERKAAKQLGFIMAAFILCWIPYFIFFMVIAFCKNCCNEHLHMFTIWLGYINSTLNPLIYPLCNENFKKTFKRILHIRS
Excerpt: Biochem Biophys Res Comm. 197(3): 1601-1608, 1993]. […] Biochem Biophys Res Comm. 197(3): 1601-1608, 1993].
Pyrilamine is used as positive control.

human D2S receptor = molecular target: T7, human D2S receptor (Homo sapiens, UniProt P14416); assay: Radioligand binding to dopamine receptor D2S ([3H] Spiperone, CHO membranes)
T7 construct: expressed in transfected cells; host or cells: CHO
T7 sequence (P14416 1-414 isoform P14416-2): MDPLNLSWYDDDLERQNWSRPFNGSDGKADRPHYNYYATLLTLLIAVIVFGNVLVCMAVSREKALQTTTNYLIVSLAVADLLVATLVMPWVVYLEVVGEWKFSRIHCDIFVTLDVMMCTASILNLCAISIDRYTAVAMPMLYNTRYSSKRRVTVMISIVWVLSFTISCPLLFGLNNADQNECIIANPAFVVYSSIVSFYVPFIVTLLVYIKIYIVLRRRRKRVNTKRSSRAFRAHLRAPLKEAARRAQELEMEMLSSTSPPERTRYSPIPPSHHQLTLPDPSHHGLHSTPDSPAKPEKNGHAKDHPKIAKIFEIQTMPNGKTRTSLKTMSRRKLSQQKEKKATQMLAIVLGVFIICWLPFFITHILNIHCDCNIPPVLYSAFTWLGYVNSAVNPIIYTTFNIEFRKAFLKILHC
Excerpt: 7-C. […] For this purpose sDNA of human D2S receptor is expressed in CHO cells, as described in [Hayes G, Biden TJ, Selbie LA and Shine J, Structural subtypes of the dopamine D2 receptor are functionally distinct. […] Mol Endocrinol. […] Mol Endocrinol. […] Spiperone is used as positive control.

human 5-HT7 receptor = molecular target: T8, human 5-HT7 receptor (Homo sapiens, UniProt P34969); assay: Radioligand binding to serotonin receptor 5-HT7 ([3H] Lysergic acid diethylamide, CHO membranes)
T8 construct: expressed in transfected cells; host or cells: CHO
T8 sequence (P34969 whole entry): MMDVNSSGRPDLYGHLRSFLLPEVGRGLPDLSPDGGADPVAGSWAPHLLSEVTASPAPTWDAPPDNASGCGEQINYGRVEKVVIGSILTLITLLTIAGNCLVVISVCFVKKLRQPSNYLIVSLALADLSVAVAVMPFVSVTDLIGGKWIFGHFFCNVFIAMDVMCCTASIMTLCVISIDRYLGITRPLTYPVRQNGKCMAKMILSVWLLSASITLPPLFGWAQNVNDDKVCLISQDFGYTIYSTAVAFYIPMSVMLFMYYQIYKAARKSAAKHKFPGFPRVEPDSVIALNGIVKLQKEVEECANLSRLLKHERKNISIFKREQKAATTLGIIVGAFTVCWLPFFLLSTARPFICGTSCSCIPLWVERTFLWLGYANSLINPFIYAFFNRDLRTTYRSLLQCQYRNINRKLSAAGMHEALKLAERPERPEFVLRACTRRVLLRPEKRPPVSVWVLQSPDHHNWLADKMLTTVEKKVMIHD
Excerpt: For this purpose sDNA of human 5-HT7 receptor is expressed in CHO cells as it was described in [Shen Y, Monsma FJ Jr, Metcalf MA, Jose PA, Hamblin MW, and Sibley DR. […] J. Biol. Chem. 1993, 268, 18200 - 18204]. […] J. Pharmacol. Exp. Ther. 1994, 268:1403-1410]. […] Methiothepin is used as positive control.

[2] = molecular target: T9, recombinant human 5-HT2A receptor (Homo sapiens, UniProt P28223); assay: Radioligand binding to serotonin receptor 5-HT2A ([3H] Ketanserin, CHO-K1 membranes); settings: for inhibition at 10 µM / 5-HT2A % inhibition: 10 µM ligand
T9 construct: expressed in transfected cells; host or cells: CHO-K1
T9 sequence (P28223 whole entry): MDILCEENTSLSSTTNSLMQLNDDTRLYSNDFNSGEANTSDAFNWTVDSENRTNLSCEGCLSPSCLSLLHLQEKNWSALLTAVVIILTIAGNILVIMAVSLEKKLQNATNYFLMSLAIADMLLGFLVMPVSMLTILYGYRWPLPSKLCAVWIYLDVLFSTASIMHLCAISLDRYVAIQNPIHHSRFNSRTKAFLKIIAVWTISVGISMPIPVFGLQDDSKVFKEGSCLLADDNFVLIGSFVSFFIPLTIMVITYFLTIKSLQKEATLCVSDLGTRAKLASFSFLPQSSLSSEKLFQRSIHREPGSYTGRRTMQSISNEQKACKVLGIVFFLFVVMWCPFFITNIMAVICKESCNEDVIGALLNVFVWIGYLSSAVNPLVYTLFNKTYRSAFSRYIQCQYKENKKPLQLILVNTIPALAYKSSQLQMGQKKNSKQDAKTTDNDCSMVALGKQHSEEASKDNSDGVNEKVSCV
Excerpt: 9-C. […] J Neurochem. […] Ketanserin is used as positive control.

[3] = read-out: Dopamine receptors, % inhibition D3
[4] = read-out: α-Adrenoceptor, % inhibition α2A
[5] = read-out: Histamine receptors, % inhibition H1, 10 µM ligand
[6] = read-out: Dopamine receptors, % inhibition D2S

Cc1ccc2c(c1)[C@@H]1CN(C)CCC[C@@H]1N2CCc1cccnc1 (relative stereo) [1.6.1(1)·3HCl]
inhibition at 10 µM (human D1 receptor): 59% | inhibition at 10 µM (human D3 receptor; [3]): 34% | inhibition at 1 µM ([1]; read-out: 5-HT2C % inhibition): 95% | inhibition at 10 µM (human D4.2 receptor): -6% | inhibition at 10 µM (human α2A receptor; [4]): 84% | inhibition at 10 µM (human H1 receptor; [5]): 100% | inhibition at 10 µM (human D2S receptor; [6]): 42%

Cc1ccc2c(c1)[C@@H]1CN(C)CCC[C@@H]1N2CCc1ccc(C)nc1 (relative stereo) [1.6.1(2)·3HCl]
inhibition at 10 µM (human D1 receptor): 55% | inhibition at 10 µM (human D3 receptor; [3]): 41% | inhibition at 10 µM ([1]; read-out: 5-HT2C % inhibition): 4% | inhibition at 10 µM (human D4.2 receptor): -11% | inhibition at 10 µM (human α2A receptor; [4]): 82% | inhibition at 10 µM (human H1 receptor; [5]): 102% | inhibition at 10 µM (human 5-HT7 receptor; read-out: 5-HT7 % inhibition): 8% | inhibition at 10 µM [2]: -4% | inhibition at 10 µM (human D2S receptor; [6]): 31%

Cc1ccc2c(c1)c1c(n2CCc2ccccc2)CCN(C)C1 [1.1.2(1-2)·HCl, 2,8-dimethyl-5-phenethyl-1,2,3,4-tetrahydro-1H-pyrido[4,3-b]indole hydrochloride]
inhibition at 10 µM (human α2A receptor; [4]): 95%

Cc1ccc(CCn2c3c(c4cc(C)ccc42)CN(C)CC3)cc1 [1.1.2(1-3), 2,8-dimethyl-5-[2-(4-methylphenyl)-ethyl]-1,2,3,4-tetrahydro-1H-pyrido[4,3-b]indole]
5-HT2C % inhibition ([1]; 10 µM ligand): 98% | nH (human α2A receptor): 1.12 | 5-HT7 % inhibition (human 5-HT7 receptor; 10 µM ligand): 98% | 5-HT2A % inhibition [2]: 98%

Cc1ccc2c(c1)c1c(n2CCc2ccccn2)CCN(C)C1 [1.1.2(2-3)·2HCl]
inhibition at 10 µM (human D1 receptor): 70% | inhibition at 3 µM (human D3 receptor; [3]): 78% | inhibition at 1 µM ([1]; read-out: 5-HT2C % inhibition): 96% | inhibition at 100 µM (human D4.2 receptor): 71% | inhibition at 10 µM (human α2A receptor; [4]): 93% | inhibition at 3 µM (human D2S receptor; [6]): 77%

Cc1ccc2c(c1)c1c(n2CCc2ccc(C)nc2)CCN(C)C1 [1.1.2(4-2)·2HCl]
inhibition at 10 µM (human D1 receptor; 10 µM ligand): 82% | inhibition at 10 µM (human D3 receptor; 10 µM ligand, read-out: Dopamine receptors, % inhibition D3): 64% | inhibition at 10 µM ([1]; 10 µM ligand, read-out: 5-HT2C % inhibition): 76% | inhibition at 10 µM (human D4.2 receptor; 10 µM ligand): 54% | inhibition at 10 µM (human α2A receptor; 10 µM ligand, read-out: α-Adrenoceptor, % inhibition α2A): 95% | nH (human α2A receptor): 0.828 | inhibition at 10 µM (human H1 receptor; 10 µM ligand, read-out: Histamine receptors, % inhibition H1): 100% | nH (human H1 receptor): 1.01 | inhibition at 10 µM (human 5-HT7 receptor; 10 µM ligand, read-out: 5-HT7 % inhibition): 96% | Dopamine receptors, % inhibition D2S (human D2S receptor; 10 µM ligand): 80% | Ki (human D2S receptor; Receptor D2S): 0.629 µM | nH (human D2S receptor; Receptor D2S): 0.724

Cc1ccc2c(c1)c1c(n2CCc2ccccn2)CCCN(C)C1 [1.2.2(2-2)]
α-Adrenoceptor, % inhibition α2A (human α2A receptor; 10 µM ligand): 90% | 5-HT7 % inhibition (human 5-HT7 receptor; 10 µM ligand): 74% | 5-HT2A % inhibition [2]: 46%

CN1CCc2c(c3ccccc3n2Cc2ccccc2)C1 [1.9(1)·1/2NDSA, bis-(5-benzyl-2-methyl-2,3,4,5-tetrahydro-1H-pyrido[4,3-b]indole) naphthalene-1,5-disulfonate]
IC50 (human D1 receptor; Receptor D1): 3.66 µM | Ki (human D1 receptor; Receptor D1): 1.83 µM | nH (human D1 receptor; Receptor D1): 1.38 | inhibition at 10 µM (human D1 receptor): 77% | nH (human D3 receptor; Receptor D3): 1.04 | inhibition at 10 µM (human D3 receptor; [3]): 65% | nH [1]: 0.987 | nH (human α2A receptor): 1,13 | inhibition at 0.3 µM (human α2A receptor; [4]): 73% | Histamine receptors, % inhibition H1 (human H1 receptor; 10 µM ligand): 105% | nH (human H1 receptor): 0.789 | nH (human D2S receptor; Receptor D2S): 0.879 | inhibition at 10 µM (human D2S receptor; [6]): 51%

CN1CCc2c(c3ccccc3n2Cc2ccccc2)C1.Cl [1.9(1)·HCl, 5-benzyl-2-methyl-2,3,4,5-tetrahydro-1H-pyrido[4,3-b]indole hydrochloride]
nH [1]: 1.21 | inhibition at 0.1 µM ([1]; read-out: 5-HT2C % inhibition): 79% | inhibition at 10 µM ([1]; read-out: 5-HT2C % inhibition): 97% | inhibition at 10 µM (human α2A receptor; [4]): 100% | inhibition at 10 µM (human H1 receptor; [5]): 97% | inhibition at 0.3 µM (human 5-HT7 receptor; read-out: 5-HT7 % inhibition): 76% | inhibition at 10 µM (human 5-HT7 receptor; read-out: 5-HT7 % inhibition): 91% | inhibition at 0.1 µM ([2]; 0.1µM ligand): 68% | inhibition at 10 µM [2]: 96% | nH ([2]; 5-HT2A): 0.765
